This passage reports EC50, inhibition and selectivity ratio results from ChEMBL document CHEMBL1629562, “Activity of indenoisoquinolines against African trypanosomes” (Antimicrob Agents Chemother, 2009).

Activity calls are given as the source filed them. No cut-off for these calls is given here.

For series [1], the system named is Trypanosoma brucei brucei. In words: Trypanocidal activity against Trypanosoma brucei brucei 427 bloodstream forms infected in mouse L1210 cells after 48 hrs. Type of series: functional, organism-based. The following applies: Trypanosoma brucei, 427, L1210, 48 h.
The test system of series [2] is Trypanosoma brucei brucei. Nature of the series: Inhibition of Trypanosoma brucei brucei 427 bloodstream forms topoisomerase 1B in assessed as formation of enzyme-DNA cleavable complex at 5 uM.
The subject of another series is L1210. Nature of the series: Cytotoxicity against mouse L1210 cells. Type of series: cell-based.
Series [3] is described as follows: Therapeutic index, EC50 for mouse L1210 cells to EC50 for bloodstream-form Trypanosoma brucei brucei 427. In kind it is cell-based. The following applies: read-out: Ratio EC50.
Series [4] has as its system Trypanosoma brucei brucei. Nature of the series: Inhibition of Trypanosoma brucei brucei 427 bloodstream form DNA synthesis assessed as inhibition of [3H]thymidine incorporation at 5 uM by liquid scintillation counting. In kind it is functional. A general note: Uptake of a labelled nucleoside into DNA is a usual measure of proliferation.
In series [5] the test system is Trypanosoma brucei brucei. In words: Antitrypanosomal activity against Trypanosoma brucei brucei 427 bloodstream forms infected in CD1 mouse assessed as reduction in parasite load at 50 mg/kg, ip after 4 days. Type of series: functional, organism-based. Further details: dose 50 mg/kg.
For series [6], the system named is Trypanosoma brucei brucei. Nature of the series: Inhibition of Trypanosoma brucei brucei 427 bloodstream forms topoisomerase 1B in assessed as formation of enzyme-DNA cleavable complex at 10 uM.
Series [7] has as its system Trypanosoma brucei brucei. Nature of the series: Inhibition of Trypanosoma brucei brucei 427 bloodstream form DNA synthesis assessed as inhibition of [3H]thymidine incorporation at 10 uM by liquid scintillation counting. Type of series: functional.

The compound `NCCCn1c2c(c3ccc([N+](=O)[O-])cc3c1=O)C(=O)c1cc(F)ccc1-2` showed an EC50 in series [1] of 80 nM.
`COc1cc2c3c(n(CCCNCCCNCCCNCCCN)c(=O)c2cc1OC)-c1cc2c(cc1C3=O)OCO2`: the inhibition in series [2] is 10%. For the same compound, the concentration giving a half-maximal response (EC50) in series [1] worked out at 1500 nM; in the series with L1210 it was 510 nM. Also, the selectivity ratio in series [3] worked out at 1.9. In addition, the inhibition at 5 µM in series [4] turned out to be 34%.
`NCCCn1c2c(c3ccc(Br)cc3c1=O)C(=O)c1cc3c(cc1-2)OCO3`: in series [1], it took 160 nM to reach a half-maximal effect (EC50).
Take `COc1cc2c3c(n(CCCNCCCNCCN)c(=O)c2cc1OC)-c1cc2c(cc1C3=O)OCO2`: the EC50 in series [1] amounted to 970 nM.
In series [1], `COc1cc2c(cc1OC)-c1c(c3ccc([N+](=O)[O-])cc3c(=O)n1CCCN)C2=O` yielded an EC50 of 140 nM.
For the compound `COc1cc2c3c(n(CCCN)c(=O)c2cc1OC)-c1ccccc1C3=O`, the inhibition in series [2] came out at 4%. For the same compound, the EC50 is 130 nM in series [1] and 2800 nM with L1210. Also, the selectivity ratio in series [3] is 4.3. Also, in series [4], the inhibition at 5 µM is 67%.
In the case of `COc1cc2c3c(n(CCCN)c(=O)c2cc1OC)-c1cc2c(cc1C3=O)OCO2`, the inhibition in series [2] amounted to 4%. For the same compound, the concentration giving a half-maximal response (EC50) in series [1] is 120 nM; in the series on L1210, 420 nM. The selectivity ratio in series [3] was 2.1. In addition, in series [4], the inhibition at 5 µM stood at 61%.
For the compound `COc1cc2c3c(n(CCCNCCCCN)c(=O)c2cc1OC)-c1cc2c(cc1C3=O)OCO2`, the inhibition in series [2] stood at 7%. Besides, the EC50 in series [1] worked out at 990 nM; with L1210, 250 nM. Moreover, the selectivity ratio in series [3] was 4.3. The inhibition at 5 µM in series [4] is 56%.
On to `NCCCn1c2c(c3ccccc3c1=O)C(=O)c1cc3c(cc1-2)OCO3`, for which the EC50 in series [1] stood at 60 nM.
Take `COc1cc2c3c(n(CCCNCCNCCCN)c(=O)c2cc1OC)-c1cc2c(cc1C3=O)OCO2`: in series [2], the inhibition turned out to be 11%. In addition, the results for the EC50 (in series [1]; with L1210) were 650 nM and 280 nM, respectively. Moreover, the selectivity ratio in series [3] came to 4. Besides, the inhibition at 5 µM in series [4] came to 44%.
As to `COc1cc2c3c(n(CCCN)c(=O)c2cc1OC)-c1ccc(C#N)cc1C3=O`, in series [2], the inhibition is 3%. The EC50 stood at 350 nM in series [1] and 970 nM in the series on L1210. Moreover, the selectivity ratio in series [3] worked out at 2.8. For the same compound, in series [4], the inhibition at 5 µM turned out to be 69%.
For `COc1ccc2c(c1)C(=O)c1c-2n(CCCN)c(=O)c2cc(OC)c(OC)cc12`, in series [2], the inhibition stood at 3%. Moreover, in series [5], the inhibition result was “Active”. Besides, the half-maximal effective concentration (EC50) came to 50 nM in series [1] and 4300 nM in the series on L1210. In addition, in series [3], the selectivity ratio turned out to be 5.6. Also, the inhibition at 5 µM in series [4] is 68%.
With `COc1ccc2c(c1)C(=O)c1c-2n(CCCN)c(=O)c2ccccc12`, the response in series [1] was half-maximal at 140 nM (EC50).
On the same count and under the same terms, for `O=C1c2ccccc2-c2c1c1ccccc1c(=O)n2CCCn1ccnc1` the value was 4200 nM; for `NCCCn1c2c(c3ccccc3c1=O)C(=O)c1ccccc1-2`, 380 nM; for `COc1cc2c3c(n(CCCn4ccnc4)c(=O)c2cc1OC)-c1cc2c(cc1C3=O)OCO2` [INDIMITECAN], 60 nM.
The same measure, in the same setting: for `COc1ccc2c(c1)C(=O)c1c-2n(CCCN)c(=O)c2cc([N+](=O)[O-])ccc12` the value was 60 nM; for `O=C1c2ccccc2-c2c1c1ccc([N+](=O)[O-])cc1c(=O)n2CCCn1ccnc1`, 200 nM; for `COc1cc2c3c(n(CCCn4ccnc4)c(=O)c2cc1OC)-c1ccccc1C3=O`, 350 nM.
In series [1], `NCCCn1c2c(c3ccc([N+](=O)[O-])cc3c1=O)C(=O)c1cc3c(cc1-2)OCO3` returned a concentration giving a half-maximal response (EC50) of 50 nM.
Take `COC(=O)c1ccc2c(c1)C(=O)c1c-2n(CCCN)c(=O)c2cc(OC)c(OC)cc12`: the inhibition in series [2] was 12%. Besides, the EC50 is 170 nM in series [1] and 2600 nM in the series with L1210. Moreover, the selectivity ratio in series [3] was determined as 2.5. Moreover, the inhibition at 5 µM in series [4] was determined as 66%.
In series [1], `NCCCn1c2c(c3ccc([N+](=O)[O-])cc3c1=O)C(=O)c1ccccc1-2` yielded an EC50 of 140 nM.
For the compound `CC[C@@]1(O)C(=O)OCc2c1cc1n(c2=O)Cc2cc3ccccc3nc2-1` [CAMPTOTHECIN], the inhibition in series [6] worked out at 61%. Also, the inhibition at 10 µM in series [7] came to 27%.

As a reminder, the EC50 is the concentration at which the effect is half-maximal. A lower EC50 goes with a more potent agent. Usually inhibition stands for how much of the control response was suppressed.
